According to patent publication EP4506003A1, “HALOGEN DERIVATIVES OF (4´,5´- METHYLENEDIOXYPHENYL)-6,7-DIMETHOXY-1,2,3,4-TETRAHYDROISOQUINOLINE FOR USE IN THE TREATMENT OF LEUKEMIA” (S.Yu Yunusov Institute of Chemistry of Plant Substances of …, priority 2023, dated 2025):
Marks after values point to notes of the source that are not given here. Blank lines part the entries; values can stand above or below the compound they belong to.

Tests used:
[1] = tested on: CCRF-CEM (CCL-119) (T-lymphoblastic leukemia); assay: MTT cytotoxicity on CCRF-CEM cells; type: cell-based; conditions: 24 hours
Experimental: (§1) The cytotoxic properties of the compounds were determined in vitro using the MTT method in 96-well plates (Costar, USA). […] Rat liver hepatocytes were obtained according to the method, human blood mononuclear cells - according to [23]. Fibroblast cells were obtained according to the method of [24] with some modifications. Cell cultures were subcultured into 96-well plates according to the method of [21] by adding 100 μl of nutrient medium. The CCRF-CEM suspension culture was poured into a tube, centrifuged at 800 rpm for 10 minutes, and the supernatant was discarded. […] Data obtained in 3 independent experiments were expressed as the mean value for each concentration ± standard error of the mean, relative to the control values (cells without test compounds). The cytotoxic effect of each of the studied compounds was compared with the effect of the cytostatic Cisplatin-Naprod (India), containing cisplatin as an active component. Table 1: IC50 μM value for test compounds

[2] = tested on: fibroblasts; assay: MTT cytotoxicity on fibroblasts; type: cell-based; conditions: 24 hours
Experimental: as §1

[3] = tested on: Rat liver hepatocytes; assay: MTT cytotoxicity on hepatocytes; type: cell-based; conditions: 24 hours
Experimental: as §1

[4] = tested on: blood of patients with leukemia (combined group); assay: Hemogram of blood of patients with leukemia (combined group) after exposure; type: cell-based; conditions: 10 µg/ml, 3 hours, 37.0°C
Text: (§3) The effect of compounds F1 and F2 was studied on biological material (blood) of patients with hematological malignancies (leukemia), as well as for individual nosologies, in particular, patients with leukemia (combined group) (n=224), T-ALL (n=84), B-ALL (n=100), ALL (n=100), AML (n= 98), AML (n=94) and AML (n= 98) were studied. A total of 798 blood samples from patients with leukemia were examined.
(§4) The drugs Cytosar (Alexan) (Ebewe Pharma, Austria) and doxorubicin (Naprod, Mumbai, India) recommended by WHO for the treatment of the above oncohematological diseases were used as comparison drugs.
(§5) 5 ml of venous blood from sick and conditionally healthy individuals were collected into Vacutainer tubes with the addition of EDTA (Himedia, India).
(§6) The resulting blood was divided into aliquots of 1 ml and 10 µl (10 µg/ml) of the studied drugs (cytosar, doxorubicin, F1 and F2) were added to each tube.

[5] = tested on: blood of patients with T-ALL; assay: Hemogram of blood of patients with T-ALL after exposure; type: cell-based; conditions: 10 µg/ml, 3 hours, 37.0°C
Text: as §3, §4, §5, §6

[6] = tested on: blood of patients with B-ALL; assay: Hemogram of blood of patients with B-ALL after exposure; type: cell-based; conditions: 10 µg/ml, 3 hours, 37.0°C
Experimental: A total of 798 blood samples from patients with leukemia were examined.
as §4, §5, §6

[7] = tested on: blood of patients with ALL; assay: Hemogram of blood of patients with ALL after exposure; type: cell-based; conditions: 10 µg/ml, 3 hours, 37.0°C
Experimental: as §3, §5, §6

[8] = tested on: blood of patients with AML; assay: Hemogram of blood of patients with AML after exposure (Example 12, Table 9); type: cell-based; conditions: AML (Table 9); 10 µg/ml; 3 hours, 37.0°C
Experimental: as §4, §5, §6

[9] = tested on: blood of patients with AML; assay: Hemogram of blood of patients with AML after exposure (Example 13, Table 10; also OMML); type: cell-based; conditions: AML (Table 10); 10 µg/ml; 3 hours, 37.0°C
Experimental: as §4, §5, §6

[10] = tested on: blood of patients with AML; assay: Hemogram of blood of patients with AML after exposure (Example 14, Table 11); type: cell-based; conditions: AML (Table 11); 10 µg/ml; 3 hours, 37.0°C
Text: as §3, §4, §5, §6

[11] = tested on: blood of conditionally healthy individuals; assay: Hemogram of blood of conditionally healthy individuals after exposure to the drugs; conditions: 10 µg/ml, 3 hours, 37.0°C
Experimental: as §5, §6

[12] = Acute toxicity study (LD50); conditions: both, outbred white, mouse, in vivo, ip
Experimental: (§2) We studied the acute toxicity of compound F1 in vivo. The experiments were carried out on outbred white mice of both sexes weighing 18-20 g (24 pcs.). The animals were divided into groups of 12 mice each. The compound was dissolved in DMSO and then adjusted to the desired concentration with 0.9% NaCl solution and administered intraperitoneally and subcutaneously in a dose range from 5.0 to 200.0 mg/kg. […] The maximum relative error of the applied dose was no more than 5%.
as §2, with “F2” for “F1”, “brought” for “adjusted”, “subcutaneously to animals” for “subcutaneously”, “administered” for “applied”

SMILES: N.N.[Cl][Pt][Cl] [Cisplatin, cisplatin, reference compound]
- IC50 [1]: 12.4 µM
- IC50 [2]: 29.4 µM
- IC50 [3]: 28.7 µM

- Band (s/n) neutrophils [11]: 1,8±0,2 %
- Blasts [11]: 0,0±0,0%
- Destroyed cells [11]: 0,0±0,0%
- Eosinophils [11]: 2,1±0,4%
- Lymphocytes [11]: 28,0±1,2%
- Monocytes [11]: 6,6±0,4 %
- Myelocytes [11]: 0,0±0,0%
- Promyelocytes [11]: 0,0±0,0%
- Segmented (s/i) neutrophils [11]: 61,5±1,2%
SMILES: Nc1ccn([C@@H]2O[C@H](CO)[C@@H](O)[C@@H]2O)c(=O)n1 [Cytosar, cytarabine, reference compound]
- Band (s/n) neutrophils [4]: 1,1±0,4 %
- Blasts [4]: 65,9±2,8 %
- Destroyed cells [4]: 9,0±1,6 %
- Eosinophils [4]: 0,4±0,3%
- Lymphocytes [4]: 13,7±1,6%
- Monocytes [4]: 3,5±0,6 %
- Myelocytes [4]: 1,1±0,3 %
- Promyelocytes [4]: 0,2±0,1%
- Segmented (s/i) neutrophils [4]: 6,7±1,1%
- Band (s/n) neutrophils [5]: 1,0±0,1%
- Blasts [5]: 73,5±2,0 %
- Destroyed cells [5]: 8,8±1,0 %
- Eosinophils [5]: 0,0±0,0%
- Lymphocytes [5]: 11,5±1,0 %
- Monocytes [5]: 2,3±0,4%
- Myelocytes [5]: 0,0±0,0%
- Promyelocytes [5]: 0,0±0,000%
- Segmented (s/i) neutrophils [5]: 3,0±0,4 %
- Band (s/n) neutrophils [6]: 0,6±0,3%
- Blasts [6]: 63,5±3,4 %
- Destroyed cells [6]: 8,9±2,2 %
- Eosinophils [6]: 0,1±0,1%
- Lymphocytes [6]: 17,2±2,0%
- Monocytes [6]: 4,6±1,2%
- Myelocytes [6]: 0,7±0,4%
- Promyelocytes [6]: 0,0±0,0%
- Segmented (s/i) neutrophils [6]: 6,1±0,9%
- Band (s/n) neutrophils [7]: 0,4±0,2%
- Blasts [7]: 78,7±1,4 %
- Destroyed cells [7]: 4,8±1,4 %
- Eosinophils [7]: 0,0±0,0%
- Lymphocytes [7]: 11,4±0,8%
- Monocytes [7]: 2,2±0,4%
- Myelocytes [7]: 0,2±0,1%
- Promyelocytes [7]: 0,0±0,0%
- Segmented (s/i) neutrophils [7]: 2,4±0,6%
- Band (s/n) neutrophils [8]: 1,2±0,5%
- Blasts [8]: 65,4±3,9 %
- Destroyed cells [8]: 6,3±1,7 %
- Eosinophils [8]: 1,0±0,9%
- Lymphocytes [8]: 12,5±1,7%
- Monocytes [8]: 3,4±0,8%
- Myelocytes [8]: 1,4±0,6%
- Promyelocytes [8]: 0,9±0,6%
- Segmented (s/i) neutrophils [8]: 5,6±1,2%
- Band (s/n) neutrophils [9]: 3,6±0,5%
- Blasts [9]: 50,2±2,8%
- Destroyed cells [9]: 7,8±0,6 %
- Eosinophils [9]: 0,6±0,3%
- Lymphocytes [9]: 6,6±0,7%
- Monocytes [9]: 1,2±0,2 %
- Myelocytes [9]: 16,0±1,4 %
- Promyelocytes [9]: 0,0±0,0%
- Segmented (s/i) neutrophils [9]: 14,1±1,2 %
- Band (s/n) neutrophils [10]: 3,5±1,0 %
- Blasts [10]: 59,5±3,7 %
- Destroyed cells [10]: 12,4±1,7 %
- Eosinophils [10]: 4,0±0,2%
- Lymphocytes [10]: 8,4 ±0,9%
- Monocytes [10]: 4,9±1,2 %
- Myelocytes [10]: 1,8±0,4%
- Promyelocytes [10]: 0,0±0,0%
- Segmented (s/i) neutrophils [10]: 9,2±2,3%

SMILES: COc1cccc2c1C(=O)c1c(O)c3c(c(O)c1C2=O)C[C@@](O)(C(=O)CO)C[C@@H]3O[C@H]1C[C@H](N)[C@H](O)[C@H](C)O1 [Doxorubicin, doxorubicin, reference compound]
- LD50 at 1 week [12]: 10.8 mg/kg
- Band (s/n) neutrophils [4]: 1,8±0,5%
- Blasts [4]: 65,6±2,6 %
- Destroyed cells [4]: 11,4±2,2 %
- Eosinophils [4]: 3,8±2,4%
- Lymphocytes [4]: 15,0±1,8%
- Monocytes [4]: 5,3±1,2%
- Myelocytes [4]: 3,3±1,2%
- Promyelocytes [4]: 0,0±0,000%
- Segmented (s/i) neutrophils [4]: 5,8±0,7%
- Band (s/n) neutrophils [5]: 1,2±0,1 %
- Blasts [5]: 67,2±0,9 %
- Destroyed cells [5]: 13,4±0,5 %
- Eosinophils [5]: 0,0±0,0%
- Lymphocytes [5]: 9,8±0,1 %
- Monocytes [5]: 1.7±0,2%
- Myelocytes [5]: 0,0±0,0%
- Promyelocytes [5]: 0,0±0,0%
- Segmented (s/i) neutrophils [5]: 6,7±0,4%
- Band (s/n) neutrophils [6]: 0,7±0,2%
- Blasts [6]: 64,3±3,7%
- Destroyed cells [6]: 13,0±2,8 %
- Eosinophils [6]: 0,1±0,1%
- Lymphocytes [6]: 15,0±2,9%
- Monocytes [6]: 1.6±0,5%
- Myelocytes [6]: 0,6±0,3%
- Promyelocytes [6]: 0,0±0,0%
- Segmented (s/i) neutrophils [6]: 4,9±0,9%
- Band (s/n) neutrophils [7]: 0,3±0,1%
- Blasts [7]: 76,4±1,7 %
- Destroyed cells [7]: 9,0±1,1*^ %
- Eosinophils [7]: 0,2±0,1%
- Lymphocytes [7]: 9,9±1,3%
- Monocytes [7]: 1.9±0,6%
- Myelocytes [7]: 0,2±0,1%
- Promyelocytes [7]: 0,0±0,0%
- Segmented (s/i) neutrophils [7]: 2,2±0,3%
- Band (s/n) neutrophils [8]: 0,5±0,4%
- Blasts [8]: 68,4±3,6 %
- Destroyed cells [8]: 5,6±1,4 %
- Eosinophils [8]: 0,8±0,7%
- Lymphocytes [8]: 13,2±2,4%
- Monocytes [8]: 5.2±1,5%
- Myelocytes [8]: 0,9±0,8%
- Promyelocytes [8]: 0,0±0,0%
- Segmented (s/i) neutrophils [8]: 5,5±1,2%
- Band (s/n) neutrophils [9]: 3,4±0,5%
- Blasts [9]: 58,4±1,9%
- Destroyed cells [9]: 15,1±1,1 %
- Eosinophils [9]: 0,7±0,3%
- Lymphocytes [9]: 6,1±0,7%
- Monocytes [9]: 1.6±0,3 %
- Myelocytes [9]: 4,0±0,4 %
- Promyelocytes [9]: 0,0±0,0%
- Segmented (s/i) neutrophils [9]: 10,8±1,0%
- Band (s/n) neutrophils [10]: 0,8±0,2%
- Blasts [10]: 45,4±1,9 %
- Destroyed cells [10]: 24,0±4,0 %
- Eosinophils [10]: 0,0±0,0%
- Lymphocytes [10]: 9,7±1,5%
- Monocytes [10]: 11.2±2,3 %
- Myelocytes [10]: 0,0±0,0%
- Promyelocytes [10]: 0,0±0,0%
- Segmented (s/i) neutrophils [10]: 9,1±1,5%
- Band (s/n) neutrophils [11]: 1,5±0,2%
- Blasts [11]: 0,0±0,0%
- Destroyed cells [11]: 0,0±0,0%
- Eosinophils [11]: 1,7±0,2%
- Lymphocytes [11]: 28,1±0,9%
- Monocytes [11]: 6,1±0,4%
- Myelocytes [11]: 0,0±0,0%
- Promyelocytes [11]: 0,0±0,0%
- Segmented (s/i) neutrophils [11]: 62,6±1,0%
